One block for each compound: values may come before it.
Columns and labels:
[1] = tested on: sickle cell disease patients with VOE; conditions: cited from earlier work
[2] = target: T1, soluble guanylate cyclase (sGC) (Homo sapiens, UniProt Q02108+Q02153); assay: sGC-HEK-cGMP assay with LC/MS detection; format: cell-based; conditions: HEK293 cells, 10 μM DETA-NONOate; concentration eliciting 50% of high control response (30 μM Compound Y); read-out: sGC_HEK_LC MS EC50 Abs
T1 construct: endogenously expressing soluble guanylate cyclase (sGC); endogenous in cells; host or cells: HEK293
T1 sequence (Q02153 1-619): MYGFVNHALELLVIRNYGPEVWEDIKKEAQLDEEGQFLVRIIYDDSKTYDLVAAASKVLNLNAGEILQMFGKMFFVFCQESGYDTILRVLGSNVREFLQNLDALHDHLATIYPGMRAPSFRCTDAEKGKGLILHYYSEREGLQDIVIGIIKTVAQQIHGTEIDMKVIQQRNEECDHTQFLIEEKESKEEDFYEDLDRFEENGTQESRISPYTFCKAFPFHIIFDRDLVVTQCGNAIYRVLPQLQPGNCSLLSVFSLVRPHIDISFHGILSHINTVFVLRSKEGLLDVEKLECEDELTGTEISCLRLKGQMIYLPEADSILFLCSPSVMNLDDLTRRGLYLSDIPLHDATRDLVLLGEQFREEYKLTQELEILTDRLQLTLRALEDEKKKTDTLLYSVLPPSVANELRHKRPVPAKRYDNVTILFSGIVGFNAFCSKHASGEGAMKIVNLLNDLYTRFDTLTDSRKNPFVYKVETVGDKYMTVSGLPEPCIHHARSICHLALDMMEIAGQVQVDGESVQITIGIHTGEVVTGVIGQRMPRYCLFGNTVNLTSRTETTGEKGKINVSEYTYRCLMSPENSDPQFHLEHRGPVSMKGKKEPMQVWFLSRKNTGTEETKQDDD
T1 sequence (Q02108 1-690): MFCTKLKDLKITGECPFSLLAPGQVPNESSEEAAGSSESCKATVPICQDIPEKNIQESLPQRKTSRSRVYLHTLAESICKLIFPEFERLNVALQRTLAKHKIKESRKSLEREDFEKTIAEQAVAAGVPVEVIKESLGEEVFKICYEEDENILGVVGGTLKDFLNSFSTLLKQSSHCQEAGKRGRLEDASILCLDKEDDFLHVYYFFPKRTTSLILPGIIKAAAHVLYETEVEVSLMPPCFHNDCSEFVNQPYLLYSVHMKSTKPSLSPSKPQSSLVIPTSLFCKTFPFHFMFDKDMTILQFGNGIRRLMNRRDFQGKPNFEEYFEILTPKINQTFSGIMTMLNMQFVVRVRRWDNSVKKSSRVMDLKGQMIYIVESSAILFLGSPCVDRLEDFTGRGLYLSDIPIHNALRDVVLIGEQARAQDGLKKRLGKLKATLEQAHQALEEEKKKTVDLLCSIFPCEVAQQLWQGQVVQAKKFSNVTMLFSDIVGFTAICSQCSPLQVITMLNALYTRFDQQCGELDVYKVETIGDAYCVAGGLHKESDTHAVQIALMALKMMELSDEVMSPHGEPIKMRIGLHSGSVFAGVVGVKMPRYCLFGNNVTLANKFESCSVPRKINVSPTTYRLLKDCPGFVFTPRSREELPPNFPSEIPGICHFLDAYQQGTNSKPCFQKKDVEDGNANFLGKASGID
Method: Human embryonic kidney cells (HEK293), endogenously expressing soluble guanylate cyclase (sGC), were used to evaluate the activity of test compounds. Compounds stimulating the sGC enzyme should cause an increase in the intracellular concentration of cGMP. HEK 293 cells were seeded in Dulbecco's Modification of Eagle's Medium supplemented with fetal bovine serum (10% final) and penicillin (100 U/mL)/streptomycin (100 ug/mL) in a […] at a density of 1.5×10^4 cells/well in a poly-D-lysine coated 384 well flat bottom plate. Cells were incubated overnight at 37° C. in a humidified chamber with 5% CO2. Medium was aspirated and cells were washed with 1× Hank's Buffered Saline Salt Solution […]. Cells were then incubated for 15 minutes at 37° C. with 50 μL of a 0.5 mM 3-isobutyl-1-methylxanthine (IBMX) solution. Test article and Diethylenetriamine NONOate (DETA-NONOate) solutions (x μM concentration for test article solution and 10 μM concentration for DETA-NONOate solution; wherein x is one of the following concentrations);
were then added to the assay mixture and the resulting mixture incubated at 37° C. for 20 minutes. After the 20 minute incubation, the assay mixture was aspirated and 10% acetic acid containing 150 ng/mL+3-cGMP (internal standard for LCMS) (50 μL) was added to the cells. The plate was incubated at 4° C. for 30 minutes in the acetic acid solution to stop the reaction and lyse the cells. The plates were then centrifuged at 1,000g for 3 minutes at 4° C. and the supernatant transferred to a clean reaction plate for LCMS analysis.
cGMP concentrations were determined from each sample using the LCMS conditions below (Table 2) and calculated standard curve. The standard curve was prepared in 10% acetic acid with 150 ng/mL+3cGMP (isotopically labelled cGMP with a weight 3 units higher than wild type) with the following final concentrations of cGMP in ng/mL: 1, 5, 10, 50, 100, 250, 500, 1000, 2000.
Data were normalized to a high control using the following equation: 100*(Sample−Low Control)/(High Control−Low Control), where the low control is the average of 16 samples treated with 1% DMSO, and the high control is the average of 16 samples treated with 30 μM of Compound Y depicted below. Data were fit using a 4-parameter fit (log(agonist) vs. response−variable slope) using GraphPad Prism Software v.5. n=2 for all compounds. The Absolute EC50 was interpolated from the curve fit and is defined as the concentration at which a given compound elicits 50% of the high control response. Compounds failing to elicit a minimum response of 50% are reported as >30 μM. For compounds run in duplicate or n higher than 2, the result herein given is the geometric mean of the several results obtained.
Code definitions for the whole cell HEK assay values, expressed as Absolute EC50 which is defined as the concentration at which a given compound elicits 50% of the high control response (Compound Y). Compounds failing to elicit a minimum response of 50% are reported as *.

[3] = target: T2, human recombinant soluble guanylate cyclase enzyme α1β1 (h sGC) (Homo sapiens, UniProt Q02108+Q02153); assay: Purified human recombinant sGC α1β1 enzyme assay in the presence of DETA-NONOate (cGMP HTRF); format: biochemical; conditions: 30 uM DETA NONOate; concentration eliciting 50% of high control response (30 uM Compound Y); read-out: sGC_Enz_HTRF_a1b1 EC50 Abs
T2 construct: purchased Enzo Life Sciences ALX-201-177
T2 sequence (Q02108 1-690): T1 sequence (Q02108 1-690)
T2 sequence (Q02153 1-619): T1 sequence (Q02153 1-619)
Method: Purified human recombinant soluble guanylate cyclase enzyme α1β1 (h sGC) obtained from Enzo Life Sciences (P/N: ALX-201-177) was used to evaluate the activity of test compounds. The assay reactions contained 0.1 M Tris (pH 8.0), 0.5 mg/mL BSA, 2 mM DTT, 4 mM MgCl2, 30 uM DETA NONOate (Enzo Life Science P/N: ALX-430-014), and 12.5 ng/ml human soluble guanylate cyclase enzyme. […] Guanosine 5′-triphosphate (Sigma-Aldrich P/N: G8877) was added to a final concentration of 300 μM and enzyme reactions were incubated (100 μL, 384-well plate format) at 37° C. for 20 minutes. The controls contained 3% DMSO (low control), or 30 uM of Compound Y (high control). After the 20 minute incubation, the reaction was stopped with the addition of 100 μL of ice cold 20% acetic acid.
cGMP concentrations in all samples were determined using the cGMP HTRF (Cisbio P/N: 62GM2PEC) assay per manufacturer's instructions. A cGMP standard curve was fit using a 4-parameter fit (log(inhibitor) vs. response—variable slope) using GraphPad Prism Software v.6. Samples were diluted appropriately to ensure that values fell within the linear range of the standard curve. The EC50 was interpolated from the curve fit and is defined as the concentration at which the compound elicits 50% of the maximal response of the 30 uM of Compound Y, the high control compound.

[4] = tested on: Guinea pig tracheal smooth muscle (GPTSM) contraction; assay: Electrical field stimulated guinea pig tracheal smooth muscle contraction (ex vivo); conditions: sub-maximal EFS, cumulative dose response curve, three animals pooled; read-out: IC50, inhibition of EFS-induced tracheal smooth muscle contraction
Method: Electrical Field Stimulated Guinea Pig Tracheal Smooth Muscle In Vitro (ex vivo) model for the Assessment of Bronchodilation.
It is possible to assess the bronchodilating effects of sGC stimulators by using the system described below. […]
On each experimental day, a guinea pig is killed by exposure to a rising concentration of CO2 and the trachea removed. […] Tissues are washed with Kreb's buffer and stimulated using the previously determined sub-maximal voltage for 1 hour to establish a stable baseline contraction prior to assessment of compound activity.
A cumulative dose response curve (DRC) to each test substance is then performed and changes in smooth muscle contraction measured. The effect of each test substance in each experiment is expressed as a percentage inhibition of the baseline contraction, normalized to the relevant vehicle controls. […] The data from all three experiments are pooled, the DRC plotted, and the test substance potency and efficacy determined.

[5] = tested on: adult sickle cell disease patients; conditions: infusions; cited from earlier work
[6] = tested on: sickle mice; conditions: oral, high doses; cited from earlier work
[7] = tested on: mdx mouse; conditions: cited from earlier work
[8] = tested on: dystrophin-deficient zebra fish; conditions: cited from earlier work
[9] = tested on: sickle cell disease patients with PHT; conditions: cited from earlier work

Compound: nitric oxide [inhaled NO]
- use of parenteral morphine ([1]; randomized placebo controlled trial, acute VOE, adult patients, compared with placebos): trend towards decreased use of parenteral morphine
- pain scores ([1]; randomized placebo controlled trial, acute VOE, adult patients): significantly reduced pain scores
- pain scores, analgesic requirements, hospital stay ([1]; sickle cell disease children presenting with VOE): trends toward lower pain scores, decreased analgesic requirements and a shorter hospital stay

- EC50 [2]: > 30 µM
- EC50 [3]: > 5 µM
Compound: CC(C)Oc1cc(-c2nc(N)c3c(n2)NC(=O)C3(C)C(N)=O)nn1Cc1ccccc1F (stereo not shown) [Compound I-39, 4-amino-2-(5-isopropoxy-1-(2-fluorobenzyl)-1H-pyrazol-3-yl)-5-methyl-6-oxo-6,7-dihydro-5H-pyrrolo[2,3-d]pyrimidine-5-carboxamide]

Compound: CC(C)[N+]1(C)[C@@H]2CC[C@H]1C[C@@H](OC(=O)C(CO)c1ccccc1)C2 (stereo partly shown) [Ipratropium bromide]
- IC50 [4]: 0.00086 µM

Compound: O=NO [sodium nitrite]
- forearm blood flow [5]: enhanced forearm blood flow

Compound: N=C(N)NCCC[C@H](N)C(=O)O [L-aminine]
- Gardos channel activity, dense cell formation, hemolysis, vascular reactivity [6]: decrease Gardos channel activity, dense cell formation and homolysis, as well as functional improvements in vascular reactivity

Compound: CCCc1nn(C)c2c(=O)[nH]c(-c3cc(S(=O)(=O)N4CCN(C)CC4)ccc3OCC)nc12 [sildenafil]
- cardiac dynamics ([7]; mdx mice): improve cardiac dynamics
- muscle ischemia, injury and fatigue after a brief bout of exercise ([7]; mdx mouse): alleviate muscle ischemia, as well as injury and fatigue
- dystrophic skeletal muscle and survival [8]: rescue dystrophic skeletal muscle and prolong survival
- PAP and exercise capacity ([9]; preliminary studies, sickle cell disease patients with severe PHT): improvements in PAP and exercise capacity
- serious side effects (Walk-PHaSST trial) ([9]; sickle cell disease patients with Doppler-defined PHT, trial stopped prematurely): higher frequency of serious side effects, including increased rates of VOE, headache, and visual disturbance

Reference: patent publication US20160311826A1, “SGC STIMULATORS” (IRONWOOD PHARMACEUTICALS, INC., priority 2013, published 2016)
